Source: patent US9884818B2, “Sulphamoylpyrrolamide derivatives and the use thereof as medicaments for the treatment of hepatitis B” (Janssen Sciences Ireland UC, priority 2013, dated 2018)

Columns and labels:
HBV [1] = experiment: Anti-HBV activity, HepG2.117 inducibly HBV producing cell line (Tet-off), intracellular HBV DNA by realtime PCR; format: cell-based; details: Hepatitis B virus, HepG2.117, 72 h, HepG2.117 cells, 3 days of treatment, intracellular HBV DNA; read-out: HepG2 117 EC50
HBV [2] = experiment: Anti-HBV activity, HepG2.2.15 stable transfected cell line, HBV DNA from secreted virions by realtime PCR; format: cell-based; details: HepG2.2.15 cells, 6 days of treatment, HBV DNA from secreted virions, read-out: HepG2 2.15 EC50
[3] = Cytotoxicity in HepG2 cells, Resazurin viability assay; details: human, HepG2 cells, HepG2 4 days CC50 (μM), incubated for 4 days, Resazurin assay
[4] = Hepatitis B virus, HepG2.2.15, 144 h

Structure (SMILES)	EC50 (HBV [1])	EC50 (HBV [2]; [4])	CC50 at 4 days [3]	EC50 (HBV [2])
CCC(C)(NS(=O)(=O)c1cc(C(=O)Nc2cc(F)c(F)c(Cl)c2)n(C)c1)C(F)(F)F (single isomer, unassigned) [Compound 165a, N-(3-chloro-4,5-difluoro-phenyl)-1-methyl-4-[[1-methyl-1-(trifluoro-methyl)propyl]sulfamoyl]pyrrole-2-carboxamide]	40 nM	150 nM	9.3 µM	
C[C@@H](NS(=O)(=O)c1cn(C)c(C(=O)Nc2cccc(C#N)c2)c1F)C(F)(F)F [Compound 180, N-(3-Cyanophenyl)-3-fluoro-1-methyl-4-{[(1R)-2,2,2-trifluoro-1-methylethyl]sulfamoyl}-1H-pyrrole-2-carboxamide]	20 nM	10 nM	> 25 µM	
CCn1cc(S(=O)(=O)NC(C)C)cc1C(=O)Nc1ccc(F)c(C)c1 [Compound 29, 1-ethyl-N-(4-fluoro-3-methyl-phenyl)-4-(isopropylsulfamoyl)pyrrole-2-carboxamide]	210 nM	150 nM	> 25 µM	
Cn1cc(S(=O)(=O)NC2(C)CC(F)(F)C2)cc1C(=O)Nc1ccc(F)c(C#N)c1 [Compound 245, N-(3-cyano-4-fluoro-phenyl)-4-[(3,3-difluoro-1-methyl-cyclobutyl)sulfamoyl]-1-methyl-1H-pyrrole-2-carboxamide]	40 nM	40 nM	> 25 µM	
C[C@H](NS(=O)(=O)c1cc(C(=O)Nc2ccc(F)c(Cl)c2)n(C)c1)C(F)(F)F [Compound 105, N-(3-Chloro-4-fluorophenyl)-1-methyl-4-{[(1S)-2,2,2-trifluoro-1-methylethyl]sulfamoyl}-1H-pyrrole-2-carboxamide]	20 nM	30 nM	> 25 µM	
C[C@@H](NS(=O)(=O)c1cc(C(=O)Nc2cccc(Br)c2F)n(C)c1)C(F)(F)F [Compound 206, N-(3-Bromo-2-fluorophenyl)-1-methyl-4-{[(1R)-2,2,2-trifluoro-1-methylethyl]sulfamoyl}-1H-pyrrole-2-carboxamide]	90 nM	30 nM	> 25 µM	
Cn1cc(S(=O)(=O)NC(C)(C)C)cc1C(=O)Nc1cccc(C#N)c1F [Compound 192, 4-(tert-Butylsulfamoyl)-N-(3-cyano-2-fluorophenyl)-1-methyl-1H-pyrrole-2-carboxamide]	190 nM	570 nM	> 25 µM	
Cn1cc(S(=O)(=O)NC2(C)COC2)cc1C(=O)Nc1ccc(F)c(Cl)c1F [Compound 121, N-(3-Chloro-2,4-difluorophenyl)-1-methyl-4-[(3-methyloxetan-3-yl)sulfamoyl]-1H-pyrrole-2-carboxamide]	40 nM	50 nM	> 25 µM	
C[C@@H](NS(=O)(=O)c1cc(C(=O)Nc2cccc(C(F)(F)F)c2)n(C)c1)C(F)(F)F [Compound 122, 1-methyl-4-[[(1R)-2,2,2-trifluoro-1-methyl-ethyl]sulfamoyl]-N-[3-(trifluoromethyl)phenyl]pyrrole-2-carboxamide]	> 1000 nM	70 nM	13.1 µM	
Cc1cc(NC(=O)c2cc(S(=O)(=O)NC3(CO)CC3)cn2C)ccc1F [Compound 12, N-(4-fluoro-3-methyl-phenyl)-4-[[1-(hydroxymethyl)cyclopropyl]sulfamoyl]-1-methyl-pyrrole-2-carboxamide]	60 nM	120 nM	> 25 µM	
CC(C)NS(=O)(=O)c1cc(C(=O)Nc2ccc(F)c(Cl)c2F)n(C)c1 [Compound 172, N-(3-Chloro-2,4-difluorophenyl)-1-methyl-4-[(1-methylethyl)sulfamoyl]-1H-pyrrole-2-carboxamide]	80 nM	100 nM	> 25 µM	
C[C@@H](NS(=O)(=O)c1cc(C(=O)Nc2c(F)ccc(Cl)c2F)n(C)c1)C(F)(F)F [Compound 204, N-(3-Chloro-2,6-difluorophenyl)-1-methyl-4-{[(1R)-2,2,2-trifluoro-1-methylethyl]sulfamoyl}-1H-pyrrole-2-carboxamide]	620 nM	650 nM	> 25 µM	
Cc1c(S(=O)(=O)N[C@H](C)C(F)(F)F)cn(C)c1C(=O)Nc1ccc(F)c(Cl)c1 [Compound 145, N-(3-Chloro-4-fluorophenyl)-1,3-dimethyl-4-{[(1R)-2,2,2-trifluoro-1-methylethyl]sulfamoyl}-1H-pyrrole-2-carboxamide]	30 nM	40 nM	> 25 µM	
Cn1cc(S(=O)(=O)NC2CCCC2(F)F)cc1C(=O)Nc1ccc(F)c(Cl)c1F (single isomer, unassigned) [Compound 236a, N-(3-Chloro-2,4-difluorophenyl)-4-{[2,2-difluorocyclopentyl]sulfamoyl}-1-methyl-1H-pyrrole-2-carboxamide]	50 nM		> 25 µM	20 nM
C[C@@H](NS(=O)(=O)c1cn(C)c(C(=O)Nc2ccc(F)c(C(F)F)c2F)c1F)C(F)(F)F [Compound 287, N-[3-(difluoromethyl)-2,4-difluoro-phenyl]-3-fluoro-1-methyl-4-[[(1R)-2,2,2-trifluoro-1-methyl-ethyl]sulfamoyl]pyrrole-2-carboxamide]	5 nM	4 nM	> 25 µM	
C[C@@H](NS(=O)(=O)c1cn(C)c(C(=O)Nc2ccc(F)c(Br)c2F)c1F)C(F)(F)F [Compound 184, N-(3-Bromo-2,4-difluorophenyl)-3-fluoro-1-methyl-4-{[(1R)-2,2,2-trifluoro-1-methylethyl]sulfamoyl}-1H-pyrrole-2-carboxamide]	6 nM	8 nM	> 25 µM	
CC(NS(=O)(=O)c1cc(C(=O)Nc2ccc(F)c(C#N)c2)n(C)c1)C(F)F (single isomer, unassigned) [Compound 200a, N-(3-Cyano-4-fluorophenyl)-4-{[2,2-difluoro-1-methylethyl]sulfamoyl}-1-methyl-1H-pyrrole-2-carboxamide]	50 nM	100 nM	> 25 µM	
CCC(CC)(NS(=O)(=O)c1cc(C(=O)Nc2ccc(F)c(Cl)c2F)n(C)c1)C(F)(F)F [Compound 259, N-(3-chloro-2,4-difluoro-phenyl)-4-[[1-ethyl-1-(trifluoromethyl)-propyl]sulfamoyl]-1-methyl-1H-pyrrole-2-carboxamide]	50 nM	50 nM	> 25 µM	
Cn1cc(S(=O)(=O)NC2(C(F)(F)F)CCC2)cc1C(=O)Nc1ccc(F)c(Cl)c1F [Compound 263, N-(3-chloro-2,4-difluoro-phenyl)-1-methyl-4-{[1-(trifluoromethyl)-cyclobutyl]sulfamoyl}-1H-pyrrole-2-carboxamide]	8 nM	5 nM	> 25 µM	
Cc1cc(NC(=O)c2cc(S(=O)(=O)N[C@H](C)CO)cn2C)ccc1F [Compound 3, N-(4-fluoro-3-methyl-phenyl)-4-[[(1R)-2-hydroxy-1-methyl-ethyl]sulfamoyl]-1-methyl-pyrrole-2-carboxamide]	100 nM	70 nM	> 25 µM	
CC(C)NS(=O)(=O)c1cn(C)c(C(=O)Nc2ccc(F)c(F)c2)c1F [Compound 232, N-(3,4-Difluorophenyl)-3-fluoro-1-methyl-4-[(1-methylethyl)sulfamoyl]-1H-pyrrole-2-carboxamide]	20 nM	20 nM	> 25 µM	
